16 compounds from patent US10723727B2, “Tubulysin analogs and methods for their preparation” (priority 2016, dated 2020) can be followed below.

Assay [1] concerns MDA-MB-361-DYT2 (breast cancer) cells. Description: In vitro cell assay (MTS cell viability), MDA-MB-361-DYT2. The note with it: 96 h, free compounds; 96 hours after treatment. It is filed as cell-based. How it is done:
(§1) In Vitro Cell Assay Procedure
(§2) Target expressing (BT474 (breast cancer), N87 (gastric cancer), HCC1954 (breast cancer), MDA-MB-361-DYT2 (breast cancer)) or non-expressing (HT-29) cells were seeded in 96-well cell culture plates for 24 hours before treatment. Cells were treated with 3-fold serially diluted antibody-drug conjugates or free compounds (i. e. no antibody conjugated to the drug) in duplicate at 10 concentrations. Cell viability was determined by CellTiter 96® AQueous One Solution Cell Proliferation MTS Assay (Promega, Madison Wis.) 96 hours after treatment. Relative cell viability was determined as percentage of untreated control. IC50 values were calculated using a four parameter logistic model #203 with XLfit v4. 2 (IDBS, Guildford, Surry, UK).

For assay [2], the system named is N87 (gastric cancer) cells. Description: In vitro cell assay (MTS cell viability), N87. It is filed as cell-based. The conditions noted are these: 96 h, free compounds; 96 hours after treatment. The procedure: as §1, §2
In assay [3] the target is T1, tubulin/RB3-stathmin-like-domain (RB3-SLD-tdm) complex (Sus scrofa, UniProt P02550+P02554).
T1 construct: purchased Cytoskeleton, Inc. T240; host or cells: RB3-SLD was made in house in E. coli
Description: Tubulin Peptide-Binding Site Competition Assay (fluorescence polarization). Further details: species or system Porcine. The note with it: FP competition with BODIPY-labeled vinca peptide probe; read after five hours at 22° C.; read-out: Tubulin Peptide-Binding Site Competition Assay IC50. The procedure:
Tubulin Peptide-Binding Site Competition Assay
Tubulin binding potency was measured for payloads or cysteine-capped linker-payloads using a fluorescence polarization (FP) competition assay. The binding of a BODIPY-labeled vinca peptide probe (# B31) to a tubulin/RB3-stathmin-like-domain (RB3-SLD-tdm) complex generates a high FP signal, which can be decreased when mixing with test compounds that compete with the FP probe. The order of addition for the reagents in the FP assay was designed to pre-mix the FP probe with various concentrations of the test compound before mixing them with the tubulin/RB3-SLD-dm complex. The final assay concentrations of the probe, tubulin and RB3-SLD-dm were 3, 6, and 100 nM, respectively. IC50 for each test compound is obtained by fitting the dose-dependent FP signal change using GraphPad Prism version 5 software (La Jolla, Calif.) while Ki is converted from the IC50 using the equations described previously (Nikolovska-Coleska et al., 2004). The FP signals were measured on an Infinite M1000 (Tecan, San Jose, Calif.) using ProxiPlate-384 F Plus, Black (Perkin-Elmer, Waltham, Mass., Cat #6008260) with 15 μL of solution per well. Sample dilution and mixing were done using a Beckman Biomek XF (Brea, Calif.). Porcine tubulin was purchased from Cytoskeleton, Inc. (Denver, Colo., Cat #T240) and RB3-SLD was expressed in E. coli. and purified on Q and then Superdex75 columns. The FP assay test for each compound was run in duplicates by mixing 6 μL of solution 1 containing 2.5× test compound (2.5× serial dilution from 7.8 μM maximum concentration, 11 total concentrations) and 7.5 nM of the FP probe in 80 mM PIPES, pH 7.0, 0.02% Tween 20, 2 mM MgCl2, 1 mM EGTA and 3% DMSO with 9 μL of solution 2 containing […] porcine tubulin and 167 nM of RB3-SLD-dm peptide ([…]-[…]) on ProxiPlate-384 micro-plates.

On to `CC[C@H](C)[C@H](NC(=O)[C@H]1CCCCN1C)C(=O)N(C)[C@H](C[C@@H](OC(C)=O)c1nc(C(=O)N[C@@H](Cc2ccccc2)CN2CCOCC2)cs1)C(C)C` [#B40, (1R,3R)-4-methyl-3-[methyl(N-{[(2R)-1-methylpiperidin-2-yl]carbonyl}-L-isoleucyl)amino]-1-[4-({(2S)-1-(morpholin-4-yl)-3-phenylpropan-2-yl]carbamoyl}-1,3-thiazol-2-yl)pentyl acetate], for which the figures for the IC50 in assay [1], in assay [2] and in assay [3] were 0.308 nM, 0.485 nM and 2.4 nM, respectively.

On to `CC[C@H](C)[C@H](NC(=O)[C@H]1CCCCN1C)C(=O)N(C)[C@H](C[C@@H](OC(C)=O)c1nc(C(=O)NCCn2ccccc2=O)cs1)C(C)C` [#B41, (1R,3R)-4-methyl-3-[methyl(N-{[(2R)-1-methylpiperidin-2-yl]carbonyl}-L-isoleucyl)amino]-1-[4-{[2-(2-oxopyridin-1(2H)-yl)ethyl]carbamoyl}-1,3-thiazol-2-yl)pentyl acetate], for which the IC50 turned out to be 1.44 nM in assay [1], 2 nM in assay [2] and 4.41 nM in assay [3].

With `CCOC(=O)[C@@H](C)C[C@H](Cc1ccccc1)NC(=O)c1csc([C@@H](C[C@H](C(C)C)N(C)C(=O)[C@@H](NC(=O)[C@@]2(C)CCCN2C)[C@@H](C)CC)OC(C)=O)n1` [#B7, 1,2-dimethyl-D-prolyl-N-[(1R,3R)-1-(acetyloxy)-1-(4-{[(2R,4S)-5-ethoxy-4-methyl-5-oxo-1-phenylpentan-2-yl]carbamoyl}-1,3-thiazol-2-yl)-4-methylpentan-3-yl]-N-methyl-L-isoleucinamide], the IC50 in assay [1] worked out at 5.15 nM; in assay [2], 9.53 nM; in assay [3] it was 11.9 nM.

Regarding `CC[C@H](C)[C@H](NC(=O)[C@@]1(C)CCCN1)C(=O)N(C)[C@H](C[C@@H](OC(C)=O)c1nc(C(=O)N[C@@H](Cc2ccccc2)C[C@H](C)C(=O)OC)cs1)C(C)C` [#B6, 2-methyl-D-prolyl-N-[(1R,3R)-1-(acetyloxy)-1-(4-{[(2R,4S)-5-methoxy-4-methyl-5-oxo-1-phenylpentan-2-yl]carbamoyl}-1,3-thiazol-2-yl)-4-methylpentan-3-yl]-N-methyl-L-isoleucinamide], the IC50 in assay [1] was 18.6 nM; in assay [2] it was 29.3 nM; in assay [3], 119 nM.

Regarding `CC[C@H](C)[C@H](NC(=O)[C@H]1CCCCN1C)C(=O)N(C)[C@H](C[C@@H](OC(C)=O)c1nc(C(=O)N[C@H](CNS(C)(=O)=O)Cc2ccccc2)cs1)C(C)C` [#B36, (1R,3R)-4-methyl-3-[methyl(N-{[(2R)-1-methylpiperidin-2-yl]carbonyl}-L-isoleucyl)amino]-1-[4-({(2S)-1-[(methylsulfonyl)amino]-3-phenylpropan-2-yl}carbamoyl)-1,3-thiazol-2-yl]pentyl acetate], the IC50 in assay [1] worked out at 0.255 nM; in assay [2] it was 0.459 nM; in assay [3] it was 1.7 nM.

In the case of `CC[C@H](C)[C@H](NC(=O)[C@@]1(C)CCCN1C)C(=O)N(C)[C@H](C[C@@H](OC(C)=O)c1nc(C(=O)NC(Cc2ccccc2)c2ccccc2)cs1)C(C)C` (stereo partly drawn) [#B74, 1,2-dimethyl-D-prolyl-N-[(1R,3R)-1-(acetyloxy)-1-{4-[(1,2-diphenylethyl)carbamoyl]-1,3-thiazol-2-yl}-4-methylpentan-3-yl]-N-methyl-L-isoleucinamide], the IC50 in assay [3] is 89.3 nM.

With `CC[C@H](C)[C@H](NC(=O)[C@@]1(C)CCCN1C)C(=O)N(C)[C@H](C[C@@H](OC(C)=O)c1nc(C(=O)NCC2(c3ccccc3)CCN(C)CC2)cs1)C(C)C` [#B65, 1,2-dimethyl-D-prolyl-N-[(1R,3R)-1-(acetyloxy)-4-methyl-1-(4-{[(1-methyl-4-phenylpiperidin-4-yl)methyl]carbamoyl}-1,3-thiazol-2-yl)pentan-3-yl]-N-methyl-L-isoleucinamide], the IC50 in assay [3] was determined as 33.8 nM.

On to `CC[C@H](C)[C@H](NC(=O)[C@@]1(C)CCCN1C)C(=O)N(C)[C@H](C[C@@H](OC(C)=O)c1nc(C(=O)NCC2OCCc3ccccc32)cs1)C(C)C` (stereo partly drawn) [#B69, 1,2-dimethyl-D-prolyl-N-[(1R,3R)-1-(acetyloxy)-1-{4-[(3,4-dihydro-1H-isochromen-1-ylmethyl)carbamoyl]-1,3-thiazol-2-yl}-4-methylpentan-3-yl}-N-methyl-L-isoleucinamide], for which the IC50 in assay [3] was determined as 29.9 nM.

In the case of `CC[C@H](C)[C@H](NC(=O)[C@@]1(C)CCCN1C)C(=O)N(C)[C@H](C[C@@H](OC(C)=O)c1nc(C(=O)NCCN2CCOC2=O)cs1)C(C)C` [#B64, 1,2-dimethyl-D-prolyl-N-[(1R,3R)-1-(acetyloxy)-4-methyl-1-(4-{[2-(2-oxo-1,3-oxazolidin-3-yl)ethyl]carbamoyl}-1,3-thiazol-2-yl)pentan-3-yl]-N-methyl-L-isoleucinamide], the IC50 in assay [3] was 73 nM.

In the case of `CC[C@H](C)[C@H](NC(=O)[C@@]1(C)CCCN1C)C(=O)N(C)[C@H](C[C@@H](OC(C)=O)c1nc(C(=O)N[C@@H](Cc2ccccc2)CN2CCOCC2)cs1)C(C)C` [#B72, 1,2-dimethyl-D-prolyl-N-[(1R,3R)-1-(acetyloxy)-4-methyl-1-(4-{[(2S)-1-(morpholin-4-yl)-3-phenylpropan-2-yl]carbamoyl}-1,3-thiazol-2-yl)pentan-3-yl]-N-methyl-L-isoleucinamide], the IC50 in assay [3] turned out to be 32.9 nM.

As to `CC[C@H](C)[C@H](NC(=O)[C@@]1(C)CCCN1C)C(=O)N(C)[C@H](C[C@@H](OC(C)=O)c1nc(C(=O)NCCc2c[nH]cn2)cs1)C(C)C` [#B54, 1,2-dimethyl-D-prolyl-N-[(1R,3R)-1-(acetyloxy)-1-(4-{[2-(1H-imidazol-4-yl)ethyl]carbamoyl}-1,3-thiazol-2-yl)-4-methylpentan-3-yl]-N-methyl-L-isoleucinamide], the IC50 in assay [3] amounted to 60.6 nM.

For the compound `CC[C@H](C)[C@H](NC(=O)[C@@]1(C)CCCN1C)C(=O)N(C)[C@H](C[C@@H](OC(C)=O)c1nc(C(=O)NC2(c3ccccn3)CC2)cs1)C(C)C` [#B63], in assay [3], the IC50 is 105 nM.

For `CC[C@H](C)[C@H](NC(=O)[C@@]1(C)CCCN1C)C(=O)N(C)[C@H](C[C@@H](OC(C)=O)c1nc(C(=O)NC2(c3ccccc3)CC2)cs1)C(C)C` [#B52, 1,2-dimethyl-D-prolyl-N-[(1R,3R)-1-(acetyloxy)-4-methyl-1-{4-[(1-phenylcyclopropyl)carbamoyl]-1,3-thiazol-2-yl}pentan-3-yl]-N-methyl-L-isoleucinamide], the IC50 in assay [3] is 61.8 nM.

For `CCOC(=O)c1ncoc1[C@H](Cc1ccccc1)NC(=O)c1csc([C@@H](C[C@H](C(C)C)N(C)C(=O)[C@@H](NC(=O)[C@@]2(C)CCCN2C)[C@@H](C)CC)OC(C)=O)n1` [#B75, 1,2-dimethyl-D-prolyl-N-{(1R,3R)-1-(acetyloxy)-1-[4-({(1S)-1-[4-(ethoxycarbonyl)-1,3-oxazol-5-yl]-2-phenylethyl}carbamoyl)-1,3-thiazol-2-yl]-4-methylpentan-3-yl}-N-methyl-L-isoleucinamide], the 50% inhibitory concentration (IC50) in assay [3] turned out to be 25.8 nM.

For `CC[C@H](C)[C@H](NC(=O)[C@@]1(C)CCCN1C)C(=O)N(C)[C@H](C[C@@H](OC(C)=O)c1nc(C(=O)NCCN2Cc3ccccc3C2=O)cs1)C(C)C` [#B44, 1,2-dimethyl-D-prolyl-N-[(1R,3R)-1-(acetyloxy)-4-methyl-1-(4-{[2-(1-oxo-1,3-dihydro-2H-isoindol-2-yl)ethyl]carbamoyl}-1,3-thiazol-2-yl)pentan-3-yl]-N-methyl-L-isoleucinamide], the IC50 in assay [3] was 47.6 nM.

On to `CC[C@H](C)[C@H](NC(=O)[C@@]1(C)CCCN1C)C(=O)N(C)[C@H](C[C@@H](OC(C)=O)c1nc(C(=O)NCCc2cncnc2)cs1)C(C)C` [#B71, 1,2-dimethyl-D-prolyl-N-[(1R,3R)-1-(acetyloxy)-4-methyl-1-(4-{[2-(pyrimidin-5-yl)ethyl]carbamoyl}-1,3-thiazol-2-yl)pentan-3-yl]-N-methyl-L-isoleucinamide], for which the IC50 in assay [3] stood at 85.1 nM.
